Results on 21 molecules are retold here after patent publication US20140120087A1, “TRIAZOLOPYRIDINES” (BAYER INTELLECTUAL PROPERTY GMBH, priority 2011, published 2014).

Series [1] is described as follows: Hydrolytic stability assay at pH 2. It is filed as physicochemical. Conditions: buffer pH 2, 37° C. How it is done: The hydrolytic stability assay investigates the stability of a compound in an aqueous buffer system. Standard solution stability assay is run in 0.05 M Phosphate buffer at pH 7.4 (pH of blood plasma) at 37° C. As compounds in the GI tract are exposed to a wide variety of pHs any relevant pH (as pH 2 to simulate the acidic condition of the GI tract in the following experiment) can be chosen. Compounds are incubated in relevant solution at 37° C. and analyzed by HPLC immediately after incubation and after 1, 2 and 24 hrs. Degradation rate (decay in %) is calculated by relating peak areas after 1, 2 and 24 hrs to the time zero injection.
Compound is available as 10 mM in DMSO (solution 1). 2.5 μL of solution 1 is dissolved in 1 mL acetonitrile leading to solution 2. Poorly soluble compounds may demand another dilution step of solution 2 (1:5 and 1:10 respectively) in Acetonitrile). Solution 2 is incubated at 37° C. in a tempered HPLC autosampler. 1 mL buffer pH 2 is transferred into an HPLC vial. 100 μL of solution 2 is added to the buffer pH 2 solution and mixed thoroughly. Immediately after mixing the combined solution is injected into the HPLC to give the time zero injection. Injections are repeated after 1, 2 and 24 hrs.
The degradation rate (decay in %) is calculated using HPLC software Millennium and Excel respectively.

Series [2] concerns the target T1, Mps-1 kinase (Homo sapiens, UniProt P33981).
T1 sequence (P33981 1-857): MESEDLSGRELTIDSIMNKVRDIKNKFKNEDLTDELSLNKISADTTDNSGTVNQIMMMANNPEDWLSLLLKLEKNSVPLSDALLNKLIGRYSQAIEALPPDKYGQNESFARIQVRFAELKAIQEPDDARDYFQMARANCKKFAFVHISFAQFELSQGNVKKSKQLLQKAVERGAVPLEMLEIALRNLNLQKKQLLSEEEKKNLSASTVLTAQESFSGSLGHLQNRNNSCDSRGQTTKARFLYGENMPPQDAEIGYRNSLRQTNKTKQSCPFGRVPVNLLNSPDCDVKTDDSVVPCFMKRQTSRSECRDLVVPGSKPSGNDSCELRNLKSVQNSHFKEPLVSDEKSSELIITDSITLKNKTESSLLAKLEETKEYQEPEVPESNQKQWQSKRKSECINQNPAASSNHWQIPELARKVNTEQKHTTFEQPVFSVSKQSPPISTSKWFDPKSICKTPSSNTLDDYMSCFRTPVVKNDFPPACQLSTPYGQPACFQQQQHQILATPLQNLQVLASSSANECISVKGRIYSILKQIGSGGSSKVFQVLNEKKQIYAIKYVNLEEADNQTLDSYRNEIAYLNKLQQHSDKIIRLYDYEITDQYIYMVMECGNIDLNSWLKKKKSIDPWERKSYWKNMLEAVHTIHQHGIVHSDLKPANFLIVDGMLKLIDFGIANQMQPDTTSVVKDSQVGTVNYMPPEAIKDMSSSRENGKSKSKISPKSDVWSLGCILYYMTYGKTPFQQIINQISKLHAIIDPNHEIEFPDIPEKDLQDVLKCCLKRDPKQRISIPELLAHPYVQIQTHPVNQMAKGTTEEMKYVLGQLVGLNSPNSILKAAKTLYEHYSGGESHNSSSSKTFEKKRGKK
The series can be described thus: Mps-1 kinase assay with 10 μM ATP (TR-FRET). On the technique in general: In TR-FRET formats the signal depends on donor and acceptor labels being close together.

Series [3] addresses T1, Mps-1 kinase. The series can be described thus: Mps-1 kinase assay with 2 mM ATP (TR-FRET).
Where [4] appears, read: comparison compounds specified in WO2011/063908.

Molecules are shown by their SMILES.

As to `COc1cc(S(C)(=O)=O)ccc1Nc1nc2ccc(-c3ccc(NC(=O)Cc4ccc(F)cc4)cc3)cn2n1` [Example 01.15, 2-(4-fluorophenyl)-N-[4-(2-{[2-methoxy-4-(methylsulfonyl)phenyl]amino}-[1,2,4]triazolo[1,5-α]pyridin-6-yl)phenyl]acetamide], the “Hydrolysis at pH 2; Decay in % after 24 h” value (“Hydrolysis … in % after 24 h” below) in series [1] (compounds of the invention) is under 10%.

`N#Cc1ccccc1Nc1nc2ccc(-c3ccc(NC(=O)Cc4ccccc4)cc3)cn2n1` [Example 6, reference compound]: the “Hydrolysis … in % after 24 h” value in series [1] (setting [4]) is recorded as “≧90%”. For the molecule `N#Cc1c(F)cccc1Nc1nc2ccc(-c3ccc(NC(=O)Cc4ccccc4)cc3)cn2n1` [Example 2, reference compound], in series [1] (setting [4]), the “Hydrolysis … in % after 24 h” value was “≧20%”. The molecule also registered an IC50 in series [2] of at most 1 nM.

As for `N#Cc1ccccc1Nc1nc2ccc(-c3ccc(NC(=O)Cc4ccc(F)cc4)cc3)cn2n1` [Example 1, reference compound], the “Hydrolysis … in % after 24 h” value in series [1] (setting [4]) is “≧90%”.

`COc1cc(C(=O)NC(C)(C)CO)ccc1Nc1nc2ccc(-c3ccc(C(=O)NCc4ccc(F)cc4)c(Cl)c3)cn2n1` [Example 05.1, 2-chloro-N-(4-fluorobenzyl)-4-[2-({4-[(1-hydroxy-2-methylpropan-2-yl)-carbamoyl]-2-methoxyphenyl}amino)[1,2,4]triazolo[1,5-α]pyridin-6-yl]-benzamide]: the “Hydrolysis … in % after 24 h” value in series [1] (compounds of the invention) is recorded as under 10%. The molecule further gave an IC50 in series [2] of at most 1 nM. In the case of `N#Cc1ccccc1Nc1nc2ccc(-c3ccc(NC(=O)Cc4ccc(F)c(F)c4)cc3)cn2n1` [Example 4, reference compound], the “Hydrolysis … in % after 24 h” value in series [1] (setting [4]) is given as “≧70%”. Further, in series [2], the IC50 was at most 1 nM. In the case of `COc1cccc(CC(=O)Nc2ccc(-c3ccc4nc(Nc5ccccc5C#N)nn4c3)cc2)c1` [Example 5, reference compound], the “Hydrolysis … in % after 24 h” value in series [1] (setting [4]) is given as “≧70%”. In series [2], this molecule had an IC50 of at most 1 nM. As to `CCNC(=O)c1ccc(Nc2nc3ccc(-c4ccc(C(=O)NCC5CC5)cc4)cn3n2)c(OCC)c1` [Example 06.1, 4-[(6-{4-[(cyclopropylmethyl)carbamoyl]phenyl}[1,2,4]triazolo[1,5-α]-pyridin-2-yl)amino]-3-ethoxy-N-ethylbenzamide], the “Hydrolysis … in % after 24 h” value in series [1] (compounds of the invention) is reported as under 10%. The molecule also showed an IC50 in series [2] of at most 1 nM. Take `C[S@@+]([O-])c1ccc(Nc2nc3ccc(-c4ccc(NC(=O)Cc5ccc(F)cc5)cc4)cn3n2)c(OCC(F)(F)F)c1` (stereo in doubt) [Example 12.24, 2-(4-fluorophenyl)-N-[4-(2-{[4-(methylsulfinyl)-2-(2,2,2-trifluoroethoxy)-phenyl]amino}[1,2,4]-triazolo[1,5-a]pyridin-6-yl)phenyl]acetamide]: the IC50 in series [3] and in series [2] was at most 1 nM in each case. In the case of `COc1cc(S(C)(=O)=O)ccc1Nc1nc2ccc(-c3ccc(NC(=O)Cc4ccc(F)cc4F)cc3)cn2n1` [Example 10.01], the IC50 in series [3] was 17 nM; in series [2], at most 1 nM. For `Cc1cc([S@@+](C)[O-])ccc1Nc1nc2ccc(-c3ccc(C(=O)NCc4ccc(Cl)cc4)cc3)cn2n1` (stereo in doubt) [Example 12.75, N-(4-chlorobenzyl)-4-(2-{[2-methyl-4-(methylsulfinyl)-phenyl]amino}[1,2,4]triazolo [1,5-a]pyridin-6-yl)-benzamide], the IC50 in series [3] is 5.1 nM; in series [2] it was at most 1 nM. With `Cc1cc(C(N)=O)ccc1Nc1nc2ccc(-c3ccc(C(=O)NCc4ccc(F)cc4)cc3)cn2n1` [Example 12.65, 4-[(6-{4-[(4-fluorobenzyl)-carbamoyl]phenyl}[1,2,4]triazolo [1,5-a]pyridin-2-yl)-amino]-3-methylbenzamide], the IC50 in series [3] and in series [2] was at most 1 nM in each case.

For the molecule `COc1cc(S(C)(=O)=O)ccc1Nc1nc2ccc(-c3ccc(C(=O)NCc4ccc(F)cc4)c(OC)c3)cn2n1` [Example 09.1, N-(4-fluorobenzyl)-2-methoxy-4-(2-{[2-methoxy-4-(methylsulfonyl)phenyl]-amino}[1,2,4]triazolo[1,5-α]pyridin-6-yl)benzamide], the IC50 in series [3] was 19 nM; in series [2], at most 1 nM. Turning to `CCOc1cc(S(=O)(=O)CC)ccc1Nc1nc2ccc(-c3ccc(C(=O)NCc4ccc(F)cc4)cc3)cn2n1` [Example 02.26, 4-(2-{[2-ethoxy-4-(ethylsulfonyl)phenyl]amino}[1,2,4]triazolo[1,5-α]-pyridin-6-yl)-N-(4-fluorobenzyl)benzamide], the figures for the IC50 in series [3] and in series [2] were 6.1 nM and at most 1 nM, respectively. Regarding `Cc1cc(-c2ccc3nc(Nc4ccc(S(C)(=O)=O)cc4OCC(F)(F)F)nn3c2)ccc1C(=O)NCc1ccc(F)cc1F` [Example 12.80, N-(2,4-difluorobenzyl)-2-methyl-4-(2-{[4-(methyl-sulfonyl)-2-(2,2,2-trifluoro-ethoxy)phenyl]amino}[1,2,4]triazolo[1,5-a]pyridin-6-yl)-benzamide], the IC50 in series [3] is 18 nM; in series [2], at most 1 nM. `COc1cc(C(=O)NCCN(C)C)ccc1Nc1nc2ccc(-c3ccc(NC(=O)Cc4ccc(F)cc4)cc3)cn2n1` [Example 12.10, N-[2-(dimethylamino)ethyl]-4-{[6-(4-{[(4-fluorophenyl)-acetyl]amino}phenyl)[1,2,4]triazolo[1,5-a]pyridin-2-yl]amino}-3-methoxy-benzamide]: the IC50 in series [3] and in series [2] was at most 1 nM in each case.

`COc1cc(S(=O)(=O)NC(C)(C)C)ccc1Nc1nc2ccc(-c3ccc(NC(=O)Cc4ccc(F)cc4)cc3)cn2n1` [Example 12.15, N-[4-(2-{[4-(tert-butyl-sulfamoyl)-2-methoxy-phenyl]amino}[1,2,4]-triazolo[1,5-a]pyridin-6-yl)phenyl]-2-(4-fluoro-phenyl)acetamide]: the IC50 in series [3] is 1.6 nM; in series [2], at most 1 nM. For the molecule `Cc1cc([S@@+](C)[O-])ccc1Nc1nc2ccc(-c3ccc(C(=O)NCc4ccc(F)cc4)cc3)cn2n1` (stereo in doubt) [Example 12.69, N-(4-fluorobenzyl)-4-(2-{[2-methyl-4-(methylsulfinyl)-phenyl]amino}[1,2,4]triazolo [1,5-a]pyridin-6-yl)-benzamide], the IC50 in series [3] was 4.5 nM; in series [2], at most 1 nM.

In the case of `COc1cc(C(=O)N(C)CCN(C)C)ccc1Nc1nc2ccc(-c3ccc(NC(=O)Cc4ccc(F)cc4)cc3)cn2n1` [Example 12.08, N-[2-(dimethylamino)ethyl]-4-{[6-(4-{[(4-fluorophenyl)-acetyl]amino}phenyl)[1,2,4]triazolo[1,5-a]pyridin-2-yl]amino}-3-methoxy-N-methylbenzamide], the IC50 in series [3] and in series [2] was at most 1 nM throughout. For `COc1cc(C(=O)NCC(F)(F)F)ccc1Nc1nc2ccc(-c3ccc(C(=O)NCc4ccc(F)cc4F)cc3)cn2n1` [Example 12.79, 4-[(6-{4-[(2,4-difluoro-benzyl)carbamoyl]phenyl}-[1,2,4]triazolo[1,5-a]pyridin-2-yl)amino]-3-methoxy-N-(2,2,2-trifluoro-ethyl)benzamide], the values for the IC50 in series [3] and in series [2] were 23 nM and at most 1 nM, respectively.

Turning to `COc1cc(C(=O)NCC(F)(F)F)ccc1Nc1nc2ccc(-c3ccc(NC(=O)Cc4ccc(F)cc4)cc3)cn2n1` [Example 01.31, 4-{[6-(4-{[(4-fluorophenyl)acetyl]amino}phenyl)[1,2,4]triazolo[1,5-α]-pyridin-2-yl]amino}-3-methoxy-N-(2,2,2-trifluoroethyl)benzamide], the IC50 in series [3] was 5 nM; in series [2], at most 1 nM.

The IC50 is the concentration at which inhibition is half-maximal. The low end stands for greater potency, the high end for weaker potency.
